Among the test systems are U-251; RXF 393; RPMI-8226; CCRF-CEM; NCI-H460; IGROV-1; OVCAR-8; HL-60; NCI-H522; SNB-75; M14; OVCAR-4; 786-0; EKVX; COLO 205; SK-OV-3; SK-MEL-28; HCT-116.
Common to all, as to assay: NCI anticancer screen, dose series, 48 h

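Briefly, cells in 96-well plates were exposed to five compound concentrations for 48 h, and endpoints were estimated by linear interpolation. Abbreviation: GI50, concentration required for 50% inhibition of growth.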 The source made the active and inactive calls. Cut-off read from the data, not from the text of the source: active = GI50 up to about 1.1 µM and inactive = higher.

Take `COc1ccc(S(=O)(=O)NNS(C)(=O)=O)cc1OC`: the GI50 in the assay with U-251 was > 100 µM (inactive); with RXF 393, 31.3 µM (inactive); in the assay on RPMI-8226 it was > 100 µM (inactive); with CCRF-CEM, > 100 µM (inactive); in the assay on NCI-H460, > 100 µM (inactive); in the assay with IGROV-1, > 100 µM (inactive). The GI50 in the assay on OVCAR-8, in the assay with HL-60, in the assay with NCI-H522, in the assay on SNB-75, in the assay with M14 and with OVCAR-4 was > 100 µM (inactive) each time. Moreover, the GI50 with 786-0, with EKVX and with COLO 205 was > 100 µM (inactive) throughout.

For the compound `CCOC(=O)C1=C(C)N(Cc2ccccc2)C(=O)C1CC#N` (stereo not drawn), the GI50 is > 100 µM (inactive) in the assay on U-251; 56 µM (inactive) in the assay on RXF 393; 99.8 µM (inactive) in the assay on RPMI-8226; 31.6 µM (inactive) with CCRF-CEM; > 100 µM (inactive) with NCI-H460; > 100 µM (inactive) with SK-OV-3. In addition, the GI50 with IGROV-1 is > 100 µM (inactive); in the assay on SK-MEL-28, > 100 µM (inactive); with OVCAR-8, 83.9 µM (inactive); in the assay with HL-60 it was 26.7 µM (inactive); in the assay on SNB-75, 55.2 µM (inactive); with M14, > 100 µM (inactive). In addition, the GI50 in the assay with OVCAR-4 was 47.1 µM (inactive); in the assay with HCT-116, > 100 µM (inactive); in the assay with 786-0 it was > 100 µM (inactive); in the assay with EKVX, > 100 µM (inactive); in the assay on COLO 205 it was > 100 µM (inactive).

Turning to `OC1=CN=COc2ccccc21`, the GI50 in the assay with U-251 was > 100 µM (inactive); in the assay on RXF 393 it was > 100 µM (inactive); with RPMI-8226 it was > 100 µM (inactive); in the assay with CCRF-CEM, > 100 µM (inactive); in the assay with NCI-H460, > 100 µM (inactive); in the assay on SK-OV-3, 50.6 µM (inactive). Moreover, the GI50 is > 100 µM (inactive) in the assay with IGROV-1; > 100 µM (inactive) in the assay on SK-MEL-28; > 100 µM (inactive) in the assay with OVCAR-8; > 100 µM (inactive) in the assay on HL-60; 32.3 µM (inactive) with SNB-75; > 100 µM (inactive) in the assay on M14. The GI50 in the assay on OVCAR-4, in the assay with HCT-116, in the assay on 786-0, in the assay with EKVX and in the assay with COLO 205 was > 100 µM (inactive) throughout.

For `CCCCCCCCCCCCCP(=O)(NCC(N)=O)OCC` (stereo not drawn), the GI50 is 17.3 µM (inactive) with U-251; 22.5 µM (inactive) in the assay with RXF 393; 22.6 µM (inactive) with CCRF-CEM; 20.6 µM (inactive) in the assay on NCI-H460; 21.3 µM (inactive) with SK-OV-3; 18.5 µM (inactive) with IGROV-1. Also, the GI50 in the assay on SK-MEL-28 was 18.2 µM (inactive); with OVCAR-8, 21.4 µM (inactive); with HL-60, 13.8 µM (inactive); with NCI-H522, > 10 µM (inactive); with SNB-75 it was 5.31 µM (inactive); with M14, 16.9 µM (inactive). Also, the GI50 with OVCAR-4 was 16.7 µM (inactive); in the assay with HCT-116, 14.8 µM (inactive); in the assay with 786-0 it was 15.4 µM (inactive); in the assay on EKVX it was 19.2 µM (inactive); with COLO 205, 17.2 µM (inactive).

With `Nc1ccc(C(=O)N/C(=C\c2ccc3c(c2)OCO3)c2nc3c(O)nc(S)nc3[nH]2)cc1`, the GI50 is > 100 µM (inactive) in the assay on U-251; 33.8 µM (inactive) in the assay on RXF 393; > 100 µM (inactive) in the assay with CCRF-CEM; > 100 µM (inactive) with SK-OV-3; > 100 µM (inactive) in the assay on IGROV-1; > 100 µM (inactive) with SK-MEL-28. For the same compound, the GI50 in the assay with OVCAR-8, in the assay on NCI-H522, in the assay on M14, with OVCAR-4, in the assay on 786-0 and in the assay with EKVX was > 100 µM (inactive) in each case. Moreover, the GI50 in the assay on COLO 205 was > 100 µM (inactive).

Regarding `CC(=O)N(C(C)=O)c1c(N)n(C)c(=O)[nH]c1=O`, the GI50 in the assay on RXF 393, in the assay on RPMI-8226, in the assay with CCRF-CEM, in the assay with NCI-H460, in the assay with IGROV-1 and with SK-MEL-28 was > 100 µM (inactive) in each case. For the same compound, the GI50 in the assay with OVCAR-8, in the assay on HL-60, with M14, in the assay with OVCAR-4, in the assay with HCT-116 and in the assay on 786-0 was > 100 µM (inactive) each time. For the same compound, the GI50 in the assay on EKVX and with COLO 205 was > 100 µM (inactive) throughout.

On to `CC12C(=O)N(CCN)C(=O)C1C1c3ccccc3C2c2ccccc21` (stereo not drawn), for which the GI50 with U-251, in the assay with RPMI-8226, in the assay with CCRF-CEM, in the assay on NCI-H460, in the assay on SK-OV-3 and in the assay on IGROV-1 was > 100 µM (inactive) each time. Besides, the GI50 with SK-MEL-28 was > 100 µM (inactive); in the assay on OVCAR-8, > 100 µM (inactive); in the assay with HL-60 it was 77.8 µM (inactive); in the assay with NCI-H522, > 100 µM (inactive); in the assay with SNB-75 it was 37.3 µM (inactive); with M14, > 100 µM (inactive). In addition, the GI50 in the assay on OVCAR-4, in the assay with HCT-116, in the assay with 786-0, in the assay with EKVX and in the assay on COLO 205 was > 100 µM (inactive) in each case.

For `Cn1c2ccccc2n2c(=O)c3c(c(C#N)c12)CCCC3`, the GI50 in the assay with U-251, in the assay on RXF 393, in the assay on RPMI-8226, with NCI-H460, in the assay on SK-OV-3 and with IGROV-1 was > 100 µM (inactive) throughout. Also, the GI50 with SK-MEL-28 was > 100 µM (inactive); in the assay with OVCAR-8, > 100 µM (inactive); in the assay on HL-60, > 100 µM (inactive); in the assay on SNB-75 it was 0.792 µM (active); with M14, > 100 µM (inactive); in the assay with OVCAR-4 it was > 100 µM (inactive). In addition, the GI50 with HCT-116, in the assay with 786-0, with EKVX and in the assay on COLO 205 was > 100 µM (inactive) throughout.

Consider `CCOC(=O)C(C)(C)Oc1ccc2c(-c3ccc(Cl)cc3)cc(=O)oc2c1`, for which the GI50 in the assay on U-251, in the assay on RXF 393, in the assay on RPMI-8226, with CCRF-CEM, in the assay with NCI-H460 and with IGROV-1 was > 100 µM (inactive) in each case. The GI50 in the assay with SK-MEL-28 was > 100 µM (inactive); with OVCAR-8, > 100 µM (inactive); in the assay on HL-60 it was > 100 µM (inactive); in the assay with SNB-75, 19.3 µM (inactive); with M14, > 100 µM (inactive); in the assay on OVCAR-4, > 100 µM (inactive). In addition, the GI50 in the assay with HCT-116, with 786-0, in the assay on EKVX and in the assay on COLO 205 was > 100 µM (inactive) in each case.

Take `Nc1ccc(Nc2nc(F)nc(-c3c4ccccc4c4n3CCS4)n2)cc1`: the GI50 in the assay on U-251 was 14.7 µM (inactive); in the assay with RXF 393, 16 µM (inactive); in the assay with CCRF-CEM, 6.56 µM (inactive); in the assay with SK-OV-3, 15.3 µM (inactive); with IGROV-1, 12.4 µM (inactive); in the assay on SK-MEL-28, 15.8 µM (inactive). In addition, the GI50 in the assay on OVCAR-8 was 16.8 µM (inactive); in the assay on NCI-H522, 14 µM (inactive); in the assay with SNB-75, 14.9 µM (inactive); in the assay with M14, 17 µM (inactive); in the assay with OVCAR-4, 15 µM (inactive); in the assay with HCT-116, 14.6 µM (inactive). The results for the GI50 in the assay with 786-0, in the assay on EKVX and with COLO 205 were 15.7 µM (inactive), 18.1 µM (inactive) and 19.1 µM (inactive), respectively.

Consider `Cc1cc(Cl)ccc1NC1=NC(=O)C(CC(=O)Nc2ccc([N+](=O)[O-])cc2[N+](=O)[O-])S1` (stereo not drawn), for which the GI50 in the assay on U-251 is 23.3 µM (inactive); in the assay with RPMI-8226, 17.9 µM (inactive); in the assay on CCRF-CEM, 23.4 µM (inactive); in the assay on NCI-H460, 29.1 µM (inactive); with SK-OV-3, 25.2 µM (inactive); in the assay on IGROV-1, 32.3 µM (inactive). The GI50 was 36.8 µM (inactive) in the assay with SK-MEL-28; 34.1 µM (inactive) in the assay with OVCAR-8; 14.5 µM (inactive) with SNB-75; 24.2 µM (inactive) in the assay with M14; 19.2 µM (inactive) in the assay with OVCAR-4; 34.8 µM (inactive) with 786-0. In addition, the results for the GI50 in the assay on EKVX and in the assay on COLO 205 were 38.6 µM (inactive) and 36.6 µM (inactive), respectively.

For `CCC(C)CC(C)CC(C)/C=C(\C)C1=C(C)CC(C)(O)O1` (stereo not drawn), the GI50 in the assay with U-251 was 61.8 µM (inactive); with RXF 393, 88.9 µM (inactive); in the assay on RPMI-8226 it was 24.4 µM (inactive); in the assay on CCRF-CEM, 52.6 µM (inactive); in the assay on NCI-H460, 65.6 µM (inactive); in the assay on SK-OV-3 it was > 100 µM (inactive). In addition, the GI50 is > 100 µM (inactive) in the assay with IGROV-1; > 100 µM (inactive) with SK-MEL-28; 69.7 µM (inactive) in the assay on OVCAR-8; 23.7 µM (inactive) in the assay with HL-60; 42.2 µM (inactive) in the assay on NCI-H522; > 100 µM (inactive) with SNB-75. Further, the GI50 in the assay on M14 is > 100 µM (inactive); in the assay on HCT-116, 41 µM (inactive); in the assay on 786-0 it was 9.53 µM (inactive); in the assay on EKVX, > 100 µM (inactive); in the assay with COLO 205 it was > 100 µM (inactive).

On to `C[C@@H]1C2=CC[C@@]3(C)C(CCC3[C@H](C)[C@H]3C[C@@]4(C)O[C@@](c5cccnc5)(O3)OC4(C)C)[C@@H]2C2OC2[C@@]12CCC(=O)O2` (stereo partly drawn), for which the GI50 was 35.6 µM (inactive) with U-251; 29.2 µM (inactive) in the assay with RPMI-8226; 31 µM (inactive) in the assay with CCRF-CEM; 32 µM (inactive) with NCI-H460; 39.9 µM (inactive) in the assay with SK-OV-3; 76.6 µM (inactive) with IGROV-1. Also, the GI50 in the assay on SK-MEL-28 was 90.8 µM (inactive); with OVCAR-8, 32.4 µM (inactive); in the assay with HL-60 it was 17 µM (inactive); in the assay with NCI-H522, 29.3 µM (inactive); in the assay on SNB-75 it was 34 µM (inactive); with M14 it was 26.1 µM (inactive). For the same compound, the GI50 is 40.8 µM (inactive) in the assay on HCT-116, 38.2 µM (inactive) with 786-0 and 30 µM (inactive) with COLO 205.

The values are drawn from ChEMBL document CHEMBL1201862, “PubChem BioAssay data set” (2004).
